Measured values taken from patent EP0063149B1, “AQUEOUS FLUOROCARBIDE EMULSIONS INDEFINITELY STABLE AT A GIVEN TEMPERATURE, PROCESS FOR OBTAINING THEM AND APPLICATIONS” (Etablissement Public dit: CENTRE NATIONAL DE LA RECHERCHE …, priority 1980, dated 1982).

Experiments:
sang humain [1] = assay: Haemolysis evaluated on plasma after centrifugation; assay type: cell-based; conditions: plasma after centrifugation of blood at 2 000 g for 15 minutes
Protocol: (§1) • le sang humain était du sang de sujets normaux, prélevé le jour de l'essai, en flacon siliconé, et sur citrate à 9 %, dans le rapport du 1/20; • les produits (microémulsions ou témoin) mis en présence de ce sang, en proportions variables, ont permis, après 10 minutes d'incubation à la température du laboratoire, de pratiquer un thromboélastogramme sur sang total, afin de mettre en évidence une action éventuelle sur la coagulation globale selon le mode opératoire décrit par C. RABY dans Biologie des Hémorragies et des Thromboses 1 vol., Masson et Cie, Edit. Paris 1966, p. 187; • un temps de thrombine diluée a été effectué sur les plasmas des sangs ayant été en contact avec les microémulsions selon l'invention pendant 30 minutes à la température du laboratoire selon le mode opératoire décrit par C. RABY à la page 119 de l'ouvrage cité ci-dessus.
L'hémolyse a été évaluée sur ces plasmas après centrifugation du sang à 2 000 g pendant 15 minutes.

sang humain [2] = assay: In vitro haemocompatibility: direct action on blood, overall observation
Protocol: On a recherché si les microémulsions selon l'invention avaient une action sur le sang humain en effectuant un thromboélastogramme, en mesurant le temps de thrombine diluée et en évaluant l'hémolyse.
as §1
(§2) Cette émulsion, mise en présence de quatre échantillons de sang humain, à raison de 0,1 ml pour 0,9 ml de sang, a permis d'effectuer les essais définis ci-dessus.

[3] = Solubility and dispersion of the surfactant in physiological saline; assay type: physicochemical
Protocol: A des fins de comparaison, on a également utilisé les microémulsions ci-dessus d'une part en présence d'éthanol et d'autre part en l'absence d'éthanol.
En présence d'éthanol (VN), une solution limpide a été obtenue avec l'agent tensio-actif. Celle-ci, ajoutée dans les proportions de 0,2 ml à 1,8 ml d'eau physiologique, a donné, après agitation, une émulsion laiteuse, instable, s'éclaircissant en 15 minutes environ, tant à la température du laboratoire qu'à 37 °C.

sang humain [4] = assay: Diluted thrombin time on plasma of blood put in contact with the products; assay type: biochemical; conditions: summary
Protocol: as §1
Dans la détermination du temps de thrombine on a utilisé de l'eau physiologique comme témoin.

sang humain [5] = assay: Thromboelastogram on whole blood; conditions: after recalcification, emulsion with ethanol, 10 minutes incubation
Protocol: as §1, §2

[6] = Cloud point of the surfactant; assay type: physicochemical
[7] = emulsion with ethanol, 0,1 ml for 0,9 ml blood
[8] = ethanol solution, 0,2 ml in 1,8 ml eau physiologique, laboratory temperature and 37 °C

OCCOCCOCCOCCOCCOCCOCC(F)(F)C(F)(F)C(F)(F)C(F)(F)C(F)(F)C(F)(F)C(F)(F)F [C7F15CH2(OC2H4)6OH]
hémolyse (sang humain [1]): aucune trace
hémolyse (sang humain [1]; listed as agent tensio-actif seul): absence
action directe sur du sang normal (sang humain [2]; [7]): Aucune action directe
fluidité (sang humain [2]; [7]): n'a pas été altérée
effet in vitro sur le sang humain, non coagulé (sang humain [2]; summary): sans effet
soluble dans les solutés physiologiques [3]: n'est pas soluble
stabilité de l'émulsion [3, 8]: instable
temps d'éclaircissement de l'émulsion [3, 8]: ~15 min
activité semblable à la thrombine (sang humain [4]): ne produisent pas
amplitude « amx » (sang humain [5]): diminution
constante « r » (sang humain [5]): léger raccourcissement
« k (sang humain [5]): allongement
point de trouble [6]: < 0 °C
